Measurements reported in PubChem BioAssay (NCI).
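Protocol summary: plate cells (96-well), add compound at 5 concentrations, incubate 48 h, interpolate endpoints linearly. GI50 is the concentration that inhibits growth by half. The concentration for full growth arrest is given as TGI.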

Assays:
Assay in all cases: NCI anticancer screen, dose series, 48 h
[1] = tested on: SF-539 CNS
[2] = tested on: RXF 393 renal
[3] = tested on: EKVX NSCLC
[4] = tested on: 786-0 renal
[5] = tested on: MDA-MB-435
[6] = tested on: MCF7 breast
[7] = tested on: M14 melanoma
[8] = tested on: A498 renal
[9] = tested on: SNB-19 CNS
[10] = tested on: SK-OV-3 ovarian
[11] = tested on: HOP-62 NSCLC
[12] = tested on: U251 CNS
[13] = tested on: CCRF-CEM leukemia
[14] = tested on: OVCAR-8 ovarian
[15] = tested on: K-562 leukemia
[16] = tested on: HT29 colon
[17] = tested on: NCI-H226 lung
[18] = tested on: SK-MEL-2 melanoma
[19] = tested on: NCI/ADR-RES ovarian
[20] = tested on: NCI-H522 lung
[21] = tested on: MOLT-4 leukemia
[22] = tested on: SW-620 colon
[23] = tested on: SR leukemia
[24] = tested on: HL-60(TB) leukemia
[25] = tested on: OVCAR-4 ovarian
[26] = tested on: OVCAR-5 ovarian
[27] = tested on: A549 NSCLC
[28] = tested on: UO-31 renal
[29] = tested on: UACC-257 melanoma
[30] = tested on: SNB-75 CNS
[31] = tested on: DU-145 prostate
[32] = tested on: NCI-H460 lung
[33] = tested on: RPMI-8226 leukemia
[34] = tested on: IGROV1 ovarian
[35] = tested on: ACHN renal
[36] = tested on: COLO 205 colon
[37] = tested on: MALME-3M melanoma
[38] = tested on: UACC-62 melanoma
[39] = tested on: OVCAR-3 ovarian
[40] = tested on: TK-10 renal
[41] = tested on: BT-549 breast
[42] = tested on: MDA-MB-231 breast
[43] = tested on: HS 578T breast
[44] = tested on: HCC-2998 colon
[45] = tested on: SK-MEL-5 melanoma
[46] = tested on: HOP-92 NSCLC
[47] = tested on: SN12C renal
[48] = tested on: T-47D breast
[49] = tested on: CAKI-1 renal
[50] = tested on: SK-MEL-28 melanoma
[51] = tested on: HCT-15 colon
[52] = tested on: SF-295 CNS
[53] = tested on: PC-3 prostate
[54] = tested on: LOX IMVI melanoma
[55] = tested on: NCI-H23 lung
[56] = tested on: SF-268 CNS
[57] = tested on: HCT-116 colon
[58] = tested on: KM12 colon

## O=C(NO)c1ccc(CNc2cccc3nc(C4CC4)n(-c4ccccc4)c(=O)c23)cc1
[1]
  GI50: 1.71 µM
  TGI: 3.53 µM
[2]
  GI50: 1.42 µM
  TGI: 3.14 µM
[3]
  GI50: 2.55 µM
  TGI: 7.43 µM
[4]
  GI50: 2.18 µM
  TGI: 5.2 µM
[5]
  GI50: 1.86 µM
  TGI: 3.91 µM
[6]
  GI50: 3.35 µM
  TGI: 18 µM
[7]
  GI50: 1.91 µM
  TGI: 4.14 µM
[8]
  GI50: 1.87 µM
  TGI: 4.03 µM
[9]
  GI50: 2.61 µM
  TGI: 9.68 µM
[10]
  GI50: 2.15 µM
  TGI: 5.4 µM
[11]
  GI50: 1.89 µM
  TGI: 4.72 µM
[12]
  GI50: 1.63 µM
  TGI: 3.23 µM
[13]
  GI50: 1.5 µM
  TGI: > 100 µM
[14]
  GI50: 1.65 µM
  TGI: 5.82 µM
[15]
  GI50: 2.89 µM
  TGI: > 100 µM
[16]
  GI50: 2.16 µM
  TGI: 5.62 µM
[17]
  GI50: 2.93 µM
  TGI: 15 µM
[18]
  GI50: 2.76 µM
  TGI: 7.45 µM
[19]
  GI50: 1.28 µM
  TGI: 6.45 µM
[20]
  GI50: 1.47 µM
  TGI: 3.38 µM
[21]
  GI50: 2.79 µM
  TGI: 23.3 µM
[22]
  GI50: 1.81 µM
  TGI: 6.01 µM
[23]
  GI50: 0.877 µM
  TGI: > 100 µM
[24]
  GI50: 2.39 µM
  TGI: 5.64 µM
[25]
  GI50: 2.28 µM
  TGI: 21.9 µM
[26]
  GI50: 2.06 µM
  TGI: 6.1 µM
[27]
  GI50: 2.23 µM
  TGI: 5.74 µM
[28]
  GI50: 1.45 µM
  TGI: 2.96 µM
[29]
  GI50: 1.82 µM
  TGI: 4.76 µM
[30]
  GI50: 1.78 µM
  TGI: 5.93 µM
[31]
  GI50: 2.52 µM
  TGI: 13.7 µM
[32]
  GI50: 1.9 µM
  TGI: 5.65 µM
[33]
  GI50: 2.69 µM
  TGI: 11.3 µM
[34]
  GI50: 1.44 µM
  TGI: 3.01 µM
[35]
  GI50: 1.92 µM
  TGI: 4.67 µM
[36]
  GI50: 2.22 µM
  TGI: 5.59 µM
[37]
  GI50: 2.05 µM
  TGI: 7.61 µM
[38]
  GI50: 1.96 µM
  TGI: 4.66 µM
[39]
  GI50: 1.92 µM
  TGI: 5.51 µM
[40]
  GI50: 1.73 µM
  TGI: 7 µM
[41]
  GI50: 3.24 µM
  TGI: 14.3 µM
[42]
  GI50: 2.31 µM
  TGI: 7.33 µM
[43]
  GI50: 2.5 µM
  TGI: 20.6 µM
[44]
  GI50: 1.81 µM
  TGI: 3.44 µM
[45]
  GI50: 2.15 µM
  TGI: 4.8 µM
[46]
  GI50: 1.99 µM
  TGI: 6.82 µM
[47]
  GI50: 2.4 µM
  TGI: 10.9 µM
[48]
  GI50: 2.08 µM
  TGI: 7.34 µM
[49]
  GI50: 2.12 µM
  TGI: 7.51 µM
[50]
  GI50: 2.01 µM
  TGI: 4.26 µM
[51]
  GI50: 1.98 µM
  TGI: 6.33 µM

## O=C1C[C@@H]2OCC=C3C[N+]4([O-])CC[C@]56c7ccccc7N1[C@H]5[C@H]2[C@H]3C[C@@H]64 (some centres undefined)
[1]
  GI50: > 100 µM
  TGI: > 100 µM
[52]
  GI50: > 100 µM
  TGI: > 100 µM
[2]
  GI50: > 100 µM
  TGI: > 100 µM
[3]
  GI50: > 100 µM
  TGI: > 100 µM
[4]
  GI50: > 100 µM
  TGI: > 100 µM
[5]
  GI50: > 100 µM
  TGI: > 100 µM
[6]
  GI50: > 100 µM
  TGI: > 100 µM
[7]
  GI50: > 100 µM
  TGI: > 100 µM
[8]
  GI50: > 100 µM
  TGI: > 100 µM
[9]
  GI50: > 100 µM
  TGI: > 100 µM
[10]
  GI50: > 100 µM
  TGI: > 100 µM
[11]
  GI50: > 100 µM
  TGI: > 100 µM
[12]
  GI50: > 100 µM
  TGI: > 100 µM
[13]
  GI50: > 100 µM
  TGI: > 100 µM
[14]
  GI50: > 100 µM
  TGI: > 100 µM
[15]
  GI50: > 100 µM
  TGI: > 100 µM
[16]
  GI50: > 100 µM
  TGI: > 100 µM
[17]
  GI50: > 100 µM
  TGI: > 100 µM
[19]
  GI50: > 100 µM
  TGI: > 100 µM
[20]
  GI50: > 100 µM
  TGI: > 100 µM
[21]
  GI50: > 100 µM
  TGI: > 100 µM
[22]
  GI50: > 100 µM
  TGI: > 100 µM
[23]
  GI50: > 100 µM
  TGI: > 100 µM
[24]
  GI50: > 100 µM
  TGI: > 100 µM
[25]
  GI50: > 100 µM
  TGI: > 100 µM
[26]
  GI50: > 100 µM
  TGI: > 100 µM
[27]
  GI50: > 100 µM
  TGI: > 100 µM
[28]
  GI50: > 100 µM
  TGI: > 100 µM
[29]
  GI50: > 100 µM
  TGI: > 100 µM
[30]
  GI50: > 100 µM
  TGI: > 100 µM
[31]
  GI50: > 100 µM
  TGI: > 100 µM
[53]
  GI50: > 100 µM
  TGI: > 100 µM
[32]
  GI50: > 100 µM
  TGI: > 100 µM
[54]
  GI50: > 100 µM
  TGI: > 100 µM
[33]
  GI50: > 100 µM
  TGI: > 100 µM
[34]
  GI50: > 100 µM
  TGI: > 100 µM
[35]
  GI50: > 100 µM
  TGI: > 100 µM
[55]
  GI50: > 100 µM
  TGI: > 100 µM
[56]
  GI50: > 100 µM
  TGI: > 100 µM
[36]
  GI50: > 100 µM
  TGI: > 100 µM
[37]
  GI50: > 100 µM
  TGI: > 100 µM
[38]
  GI50: > 100 µM
  TGI: > 100 µM
[39]
  GI50: > 100 µM
  TGI: > 100 µM
[40]
  GI50: > 100 µM
  TGI: > 100 µM
[57]
  GI50: > 100 µM
  TGI: > 100 µM
[58]
  GI50: > 100 µM
  TGI: > 100 µM
[42]
  GI50: > 100 µM
  TGI: > 100 µM
[43]
  GI50: > 100 µM
  TGI: > 100 µM
[44]
  GI50: > 100 µM
  TGI: > 100 µM
[45]
  GI50: > 100 µM
  TGI: > 100 µM
[46]
  GI50: > 100 µM
  TGI: > 100 µM
[47]
  GI50: > 100 µM
  TGI: > 100 µM
[48]
  GI50: > 100 µM
  TGI: > 100 µM
[49]
  GI50: > 100 µM
  TGI: > 100 µM
[50]
  GI50: > 100 µM
  TGI: > 100 µM
[51]
  GI50: > 100 µM
  TGI: > 100 µM
